This data set is classed as physicochemical. As to the method:
The dissolution profile of the sitagliptin tannate complexes of Example 1 and 2 using simulated saliva fluid (SSF) and simulated gastric fluid (SGF) by using the following two stage dissolution protocol:
Stage 1: A sample of sitagliptin tannate complex of Example 1 or 2 was placed in 10 mL of SSF, which was prepared by dissolving 8.0 g of NaCl, 0.19 g of potassium phosphate monobasic, and 2.38 g of sodium phosphate dibasic in 1 L of water, and adjusting to pH 6.8 with phosphoric acid, heated to 37° C., for 1 minute and an aliquot was removed.
Stage 2: The remaining solution transferred to 500 mL of SGF, which was prepared by dissolving 2.0 g of NaCl in 1 L of water, and adding 1.4 mL of concentrated hydrochloric acid. The SGF was stirred at 37° C. with apparatus 2 (paddles), and aliquots were collected at 6 time-points.
The aliquots were then analyzed by HPLC to determine the amount of free sitagliptin.

As for sitagliptin tannate complex, the “solubility of the complex at neutral pH” value is listed as “not soluble or almost not soluble”. For the same substance, the “release in acidic pH” value (acidic pH, such as that found in the stomach) is on record as “immediate release”. Moreover, the “release rate at neutral pH” value (neutral pH, such as that found in the mouth) is “negligible release rate”.

For sitagliptin tannate complex [Example 2], under “simulated gastric fluid (low pH), 37° C., apparatus 2 (paddles), 6 time-points, FIG. 1 / FIG. 2”, the “sitagliptin release from the complex in SGF (stage 2)” value is “rapidly released”. Besides, the “sitagliptin released from the complex in SSF (stage 1)” value (simulated saliva fluid pH 6.8, 37° C., 1 minute, FIG. 1 / FIG. 2) is on record as “very little to no sitagliptin was released”.
